What was measured:
[1] = molecular target: T1, Recombinant human VAP-1 SSAO (Homo sapiens, UniProt Q16853); experiment: In vitro inhibition of VAP-1 SSAO activity (coupled colorimetric method, benzylamine substrate); assay type: biochemical; details: CHO cell lysate, 1 mM benzylamine, read-out: VAP-1 SSAO Inhibitory activity IC50
T1 construct: made in house; host or cells: Chinese Hamster Ovary (CHO) cells; clarified NP40 cell lysate used directly
T1 sequence (Q16853 1-763): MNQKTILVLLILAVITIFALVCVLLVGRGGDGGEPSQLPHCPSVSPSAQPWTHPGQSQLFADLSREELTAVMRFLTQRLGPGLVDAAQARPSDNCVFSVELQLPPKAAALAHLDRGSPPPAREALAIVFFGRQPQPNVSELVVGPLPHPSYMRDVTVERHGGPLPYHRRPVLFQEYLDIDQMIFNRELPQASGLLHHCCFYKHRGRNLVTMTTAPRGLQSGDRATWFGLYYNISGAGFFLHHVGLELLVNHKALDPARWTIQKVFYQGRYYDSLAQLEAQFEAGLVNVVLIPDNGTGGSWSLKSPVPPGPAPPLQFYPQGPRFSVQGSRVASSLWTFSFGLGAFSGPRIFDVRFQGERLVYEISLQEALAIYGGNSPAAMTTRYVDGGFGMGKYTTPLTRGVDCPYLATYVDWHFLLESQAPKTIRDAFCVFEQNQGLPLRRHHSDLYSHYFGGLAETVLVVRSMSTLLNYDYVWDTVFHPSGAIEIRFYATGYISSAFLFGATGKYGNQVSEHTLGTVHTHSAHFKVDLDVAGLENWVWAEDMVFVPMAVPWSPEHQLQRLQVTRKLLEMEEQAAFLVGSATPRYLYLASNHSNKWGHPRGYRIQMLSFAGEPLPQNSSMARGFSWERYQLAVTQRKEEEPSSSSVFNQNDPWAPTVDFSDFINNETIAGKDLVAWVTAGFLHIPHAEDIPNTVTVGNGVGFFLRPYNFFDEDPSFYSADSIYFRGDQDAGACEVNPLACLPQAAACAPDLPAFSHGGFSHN
Description: VAP-1 SSAO activity was measured using the coupled colorimetric method essentially as described for monoamine oxidase and related enzymes (Holt, A., et al., Anal. Biochem. 244:384-392 (1997)). Recombinant human VAP-1 SSAO expressed in Chinese Hamster Ovary (CHO) cells was used as a source of VAP-1 SSAO for activity measurements. Native CHO cells have negligible SSAO activity. These cells and their culture have previously been described (Smith, D. J., et al., J. Exp. Med. 188:17-27 (1998)). A cell lysate was prepared by suspending approximately 3.6×10^8 cells in 25 ml lysis buffer (150 mM NaCl, 10 mM Tris-Base pH 7.2, 1.5 mM MgCl2, 1% NP40) and incubating at 4° C. overnight on a rotating table. The lysate was clarified by centrifugation at 18 000 g for 5 min at room temperature and the supernatant used directly in the assay. The VAP-1 SSAO assay was performed in 96 well microtitre plates as follows. To each well was added a predetermined amount of inhibitor if required. The amount of inhibitor varied in each assay but was generally at a final concentration of between 1 nM and 50 μM. Controls lacked inhibitor. The inhibitor was in a total volume of 20 μl in water. The following reagents were then added. 0.2 M potassium phosphate buffer pH 7.6 to a total reaction volume of 200 μl, 50 μl of freshly made chromogenic solution containing 1 mM vanillic acid, 500 μM 4-aminoantipyrine and 8 U/ml horseradish peroxidase and an amount of CHO cell lysate containing VAP-1 SSAO that caused a change of 0.6 A490 per h. This was within the linear response range of the assay. The plates were incubated for 30 min at 37° C. and the background absorbance measured at 490 nm using a Wallac Victor II multilabel counter. To initiate the enzyme reaction 20 μl 10 mM benzylamine (final concentration=1 mM) was added and the plate incubated for 1 h at 37° C. The increase in absorbance, reflecting VAP-1 SSAO activity, was measured at 490 nm. Inhibition was presented as percent inhibition compared to control after correcting for background absorbance and IC50 values calculated using GraphPad Prism.

Total MAO = experiment: Total rat MAO activity (rat liver mitochondrial preparation, tyramine substrate); assay type: biochemical
Description: Rat MAO was prepared from rat liver by rinsing the 1 g liver sample several times in 14 ml KCl-EDTA-solution to remove all blood. Then 1 g liver sample was homogenized in 4 ml ice-cold potassium phosphate buffer (0.1 M, pH 7.4) with an Ultra-Turrax homogenizer (setting 11 000 rpm, 4×10 s). After centrifugation at 500 g for 10 min at 4° C. the supernatant was carefully withdrawn and was centrifuged at 12 300 g for 15 min at 4° C. The supernatant was discharged and sedimented mitochondria were resuspended in 4 ml fresh phosphate buffer and centrifuged as previously. The mitochondria were suspended in 4 ml phosphate buffer and homogenized with an Ultra-Turrax homogenizer (setting 11 000 rpm, 2×10 s). Mitochondrial preparate was aliquoted and stored at −70° C. Total MAO activity was measured in a similar way as for VAP-1 SSAO except that SSAO enzyme was replaced by MAO enzyme. To each well was added a predetermined amount of inhibitor if required. The amount of inhibitor varied in each assay but was generally at a final concentration of between 10 nM and 800 μM. Controls lacked inhibitor. The inhibitor was in a total volume of 20 μl in water. The following reagents were then added. 0.2 M potassium phosphate buffer pH 7.6 for a total reaction volume of 200 μl, 50 μl of freshly made chromogenic solution (as above) and 50 μl of MAO preparation (or needed amount of MAO). The plates were incubated for 30 min at 37° C. and the background absorbance measured at 490 nm using a Wallac Victor II multilabel counter. To initiate the enzyme reaction 20 μl of 5 mM tyramine (final concentration 0.5 mM) was added and the plate incubated for 1 h at 37° C. The increase in absorbance, reflecting MAO activity, was measured at 490 nm. Inhibition was presented as percent inhibition compared to control after correcting for background absorbance and IC50 values calculated using GraphPad Prism. Clorgyline and pargyline (inhibitors of MAO-A and -B respectively) at 0.5 μM were added to some wells as positive controls for MAO inhibition.

## O=c1cc(NCC2CC2)c(-c2nc[nH]n2)nn1-c1ccc(Cl)cc1 [Compound 71]
[1]
  IC50: 0.17 µM
Total MAO; at 50 μM
  Total MAO Inhibitory activity (%): 16%
other
  melting point: 255 to 257 °C

## COc1ccc(Nc2cc(=O)n(-c3ccc(Cl)cc3)nc2-c2nc[nH]n2)cc1 [Compound 57, 2-(4-chlorophenyl)-5-[(4-methoxyphenyl)amino]-6-(1H-1,2,4-triazol-3-yl)-3(2H)-pyridazinone]
[1]
  IC50: 0.044 µM
Total MAO; at 100 μM
  Total MAO Inhibitory activity (%): 5%
other
  melting point: 251 to 252 °C

## O=c1cc(NC2CCCCC2)c(-c2nc[nH]n2)nn1-c1ccccc1 [Compound 43, 5-cyclohexylamino-2-phenyl-6-(1H-1,2,4-triazol-3-yl)-3(2H)-pyridazinone]
[1]
  IC50: 0.078 µM
Total MAO; at 100 μM
  Total MAO Inhibitory activity (%): 5%

## O=c1cc(Oc2ccccc2)c(-c2nc[nH]n2)cn1-c1ccccc1 [Compound 34, 4-phenoxy-5-(1H-1,2,4-triazol-3-yl)-1-phenylpyridin-2(1H)-one]
[1]
  IC50: 1.6 µM
Total MAO; at 100 μM
  Total MAO Inhibitory activity (%): 24%
other
  melting point: 275 to 276 °C

## COc1ccc(Oc2cc(=O)n(-c3ccccc3)nc2-c2nc[nH]n2)cc1 [Compound 14]
[1]
  IC50: 0.37 µM
Total MAO; at 100 μM
  Total MAO Inhibitory activity (%): 0%
other
  melting point: 253 to 257 °C

## C=CCOc1cc(=O)n(-c2ccc(Cl)cc2)nc1-c1nc[nH]n1 [Compound 73]
[1]
  IC50: 2.2 µM
Total MAO; at 50 μM
  Total MAO Inhibitory activity (%): 0%
other
  melting point: 172 to 175 °C

## O=c1cc(Nc2ccc3c(c2)OCO3)c(-c2nc[nH]n2)nn1-c1ccc(Cl)cc1 [Compound 59, 2-(4-chlorophenyl)-5-[(3,4-methylenedioxyphenyl)amino]-6-(1H-1,2,4-triazol-3-yl)-3(2H)-pyridazinone]
[1]
  IC50: 0.08 µM
Total MAO; at 250 μM
  Total MAO Inhibitory activity (%): 14%
other
  melting point: 270 to 273 °C

## O=c1cc(Nc2ccc(N3CCOCC3)cc2)c(-c2nc[nH]n2)nn1-c1ccc(Cl)cc1 [Compound 74]
[1]
  IC50: 0.1 µM
Total MAO; at 50 μM
  Total MAO Inhibitory activity (%): 0%
other
  melting point: 248 to 250 °C

## O=c1cc(Oc2ccccc2)c(-c2ccc(F)cc2)nn1-c1ccccc1 [Compound 22]
[1]
  IC50: ~60 µM
Total MAO; at 100 μM
  Total MAO Inhibitory activity (%): 0%
other
  melting point: 146 to 148 °C

## O=c1cc(Nc2ccc(N3CCCCC3)cc2)c(-c2nc[nH]n2)nn1-c1ccc(Cl)cc1 [Compound 62]
[1]
  IC50: 0.28 µM
Total MAO; at 250 μM
  Total MAO Inhibitory activity (%): 21%
other
  melting point: 240 to 242 °C

## CCOc1cc(=O)n(-c2ccccc2)nc1-c1nc[nH]n1 [Compound 36]
[1]
  IC50: 16 µM
Total MAO; at 100 μM
  Total MAO Inhibitory activity (%): 3%
other
  melting point: 195 to 197 °C

## O=c1cc(Nc2cccnc2)c(-c2nc[nH]n2)nn1-c1ccccc1 [Compound 52]
[1]
  IC50: 3.5 µM
Total MAO; at 100 μM
  Total MAO Inhibitory activity (%): 9%
other
  melting point: 172 to 174 °C

## O=c1cc(NCc2ccccc2)c(-c2nc[nH]n2)nn1-c1ccccc1 [Compound 42, 5-benzylamino-2-phenyl-6-(1H-1,2,4-triazol-3-yl)-3(2H)-pyridazinone]
[1]
  IC50: 0.72 µM
Total MAO; at 100 μM
  Total MAO Inhibitory activity (%): 2%
other
  melting point: 192 to 193 °C

## O=c1cc(Oc2ccccc2)c(-c2nc[nH]n2)nn1-c1cccc(F)c1 [Compound 46]
[1]
  IC50: 0.34 µM
Total MAO; at 100 μM
  Total MAO Inhibitory activity (%): 9%
other
  melting point: 262 to 264 °C

## Cn1cc(-c2nn(-c3ccccc3)c(=O)cc2Oc2ccccc2)cn1 [Compound 17, 6-(1-methyl-1H-pyrazol-4-yl)-5-phenoxy-2-phenylpyridazin-3(2H)-one]
[1]
  IC50: 236 µM
Total MAO; at 100 μM
  Total MAO Inhibitory activity (%): 22%
other
  melting point: 195 to 197 °C

## C=CCNc1cc(=O)n(-c2ccc(Cl)cc2)nc1-c1nc[nH]n1 [Compound 70]
[1]
  IC50: 0.14 µM
Total MAO; at 50 μM
  Total MAO Inhibitory activity (%): 18%
other
  melting point: 212 to 215 °C

## O=c1cc(Nc2ccc(N3CCN(Cc4ccccc4)CC3)cc2)c(-c2nc[nH]n2)nn1-c1ccc(Cl)cc1 [Compound 77]
[1]
  IC50: 0.35 µM
Total MAO; at 50 μM
  Total MAO Inhibitory activity (%): 24%
other
  melting point: 248 to 251 °C

## COc1cc(Nc2cc(=O)n(-c3ccc(Cl)cc3)nc2-c2nc[nH]n2)cc(OC)c1OC [Compound 61]
[1]
  IC50: 0.3 µM
Total MAO; at 250 μM
  Total MAO Inhibitory activity (%): 17%
other
  melting point: 238 to 241 °C

## O=c1cc(Oc2ccccc2)c(-c2nc[nH]n2)nn1-c1ccc(Cl)cc1 [Compound 25]
[1]
  IC50: 0.35 µM
Total MAO; at 100 μM
  Total MAO Inhibitory activity (%): 0%
other
  melting point: 246 to 247 °C

## CN(C)c1ccc(Nc2cc(=O)n(-c3ccc(Cl)cc3)nc2-c2nc[nH]n2)cc1 [Compound 65]
[1]
  IC50: 0.063 µM
Total MAO; at 250 μM
  Total MAO Inhibitory activity (%): 8%
other
  melting point: 276 to 279 °C

## C#CCNc1cc(=O)n(-c2ccc(Cl)cc2)nc1-c1nc[nH]n1 [Compound 75]
[1]
  IC50: 0.22 µM
Total MAO; at 50 μM
  Total MAO Inhibitory activity (%): 0%
other
  melting point: 252 to 254 °C

## CNc1cc(=O)n(-c2ccccc2)nc1-c1nc[nH]n1 [Compound 28]
[1]
  IC50: 3.6 µM
Total MAO; at 100 μM
  Total MAO Inhibitory activity (%): 10%
other
  melting point: 245 to 247 °C

## C#CCCNc1cc(=O)n(-c2ccc(Cl)cc2)nc1-c1nc[nH]n1 [Compound 83]
[1]
  IC50: 0.073 µM
Total MAO; at 50 μM
  Total MAO Inhibitory activity (%): 0%
other
  melting point: 176 to 177 °C

## CC(C)Nc1cc(=O)n(-c2ccccc2)nc1-c1nc[nH]n1 [Compound 29, 5-isopropylamino-2-phenyl-6-(1H-1,2,4-triazol-3-yl)-3(2H)-pyridazinone]
[1]
  IC50: 0.27 µM
Total MAO; at 100 μM
  Total MAO Inhibitory activity (%): 9%
other
  melting point: 203 to 205 °C

## COc1cccc(-n2nc(-c3nc[nH]n3)c(Oc3ccccc3)cc2=O)c1 [Compound 27]
[1]
  IC50: 2 µM
Total MAO; at 100 μM
  Total MAO Inhibitory activity (%): 3%
other
  melting point: 253 to 254 °C

## O=c1cc(Sc2ccccc2)c(-c2nc[nH]n2)nn1-c1ccccc1 [Compound 16, 2-phenyl-5-phenylsulfanyl-6-(1H-1,2,4-triazol-3-yl)-3(2H)-pyridazinone]
[1]
  IC50: 0.64 µM
Total MAO; at 100 μM
  Total MAO Inhibitory activity (%): 24%
other
  melting point: 245 to 250 °C

Reference: patent US9371290B2, “Pyridazinone compounds” (BIOTIE THERAPIES CORPORATION, priority 2011, dated 2016)
